{
  "source": "patent US20160033528A1",
  "about": "“Methods for Selecting Peptides that Bind to Disease Specific Antibodies, Disease Specific Peptides and Uses Thereof” (The Regents of the University of California, priority 2014, published 2016)",
  "key": {"[1]": {"tested_on": "CD patient IgG antibodies", "experiment": "Individual clone reactivity with individual patient sera by flow cytometry (second-generation PEQ peptides)", "format": "binding, human", "conditions": "CD case sera n=18 not used for screening", "description": "Depletion of E. coli binding serum antibodies. Diluted sera were depleted of E. coli binding antibodies prior to library screening and clone reactivity assays. To remove E. coli binding antibodies, an overnight culture of cells expressing the library scaffold (eCPX) with or without the v114 peptide were diluted (1:50) in fresh media and grown separately until the optical density at 600 nm (OD600) was ˜0.6. Cells were induced for 1 hr at 37° C., and then 2×10^9 cells from each culture were combined and centrifuged at 3000 ref for 5 min. Cells were resuspended in PBS-T (1 mL) containing 100× diluted pooled or individual sera. Samples were incubated overnight at 4° C. on an orbital shaker at 20 rpm. After incubation, samples were centrifuged at 3000 ref for 5 min (2×), and the depleted serum supernatant was recovered and stored at 4° C. for up to three days before use.\nFor flow cytometric analysis and sorting, induced cells corresponding to 5× the estimated remaining clonal diversity were incubated with 1:100-1:200 dilution of pooled sera for 45 min at 4° C. followed by centrifugation and removal of unbound supernatant (3× washing). The pellet was then resuspended in the respective 1:500 biotinylated goat anti-human secondary antibody (IgA/IgG/IgM) in 1× PBST at 4° C. for 45 min followed by centrifugation and removal of unbound supernatant (2× washing). For tertiary labeling, the pellet resuspended in 15 nM SA-PE in 1× PBST at 4° C. for 45 min, followed by another wash via centrifugation and resuspension (3× washing) in ice-cold PBST at a volume between 10^7 and 10^8 cells/mL. Resuspended cells were analyzed using a FACSAria cell sorter (Becton Dickinson) using 488-nm excitation. After sorting, retained cells were amplified for further rounds of sorting by overnight growth and plated to isolate single clones. […]\nIn vitro evolution of CD specific peptides. […] To assess the diagnostic sensitivity and specificity of individual peptides, the reactivities of one representative clone from each motif group was measured using CD case (n=18) and non-CD control sera (n=5) not used for screening. […]"}, "anti-CSE antibodies": {"tested_on": "anti-CSE antibodies", "experiment": "CSE reactivity in matched CD sera at diagnosis and after one year of gluten-free diet", "format": "binding, human", "conditions": "11 CD cases", "text": "Active CD patients (n=54) ranging in age from 18-74 had small intestinal biopsies with a Marsh 3a-3c histological lesion, tested seropositive for transglutaminase (TG2) and endomysium (EMA) autoantibodies, and were Caucasian. Human lymphocyte antigens (HLA)-typing for the presence of DQ2 or DQ8 alleles was available for 42/54 CD sera.\nDirected evolution pooled clone & individual patient single clone reactivity assays. To compare the reactivity of consensus epitopes from each generation, overnight cultures of individual clones within a consensus epitope family (4-5 clones/family) were diluted (1:50) in fresh media and grown until the OD600 was between 0.5 and 0.7. Cultures of each individual Clones were induced for 45 min, and 10^6 cells from each culture were pooled together. Pooled consensus epitope families were assayed for binding to case and control group sera (3 subjects/group) by flow cytometry. […] Cells expressing the eCPX scaffold without a peptide insert were used as a negative (background) control. […]\nTo determine prevalence of anti-CSE antibodies in CD and control subjects, CD and non-CD sera (n=231) were assessed for reactivity to the CSE peptide: MDVRCRDSFVYQCHVGT (SEQ ID NO: 2). […]"}, "[2]": {"tested_on": "serum IgA of patients with CD", "conditions": "cited from earlier work"}},
  "data": [
    {"sequence": "GQGQAFPEQGSVPIN [A/VFPEQ motif peptide, focused library 1]", "values": [
      {"measurement": "CD sera the peptide reacted with (reactive/tested)", "setting": "[1]", "value": "14/18"}
    ]},
    {"sequence": "VAWTMGPEQPLVRAL [PEQPL motif peptide, focused library 1]", "values": [
      {"measurement": "CD sera the peptide reacted with (reactive/tested)", "setting": "[1]", "value": "11/18"}
    ]},
    {"sequence": "MDVRCRDSFVYQCHVGT [CSE peptide]", "values": [
      {"measurement": "patients with reduced, but non-zero, levels of epitope reactivity after a GFD", "setting": "anti-CSE antibodies; after one year on a gluten-free diet", "value": "8/11"},
      {"measurement": "active CD patients reactive", "setting": "anti-CSE antibodies; sera at time-of-diagnosis", "value": "10/11"}
    ]},
    {"sequence": "VWDRGVPEQMFPRKG [PEQxFP motif derived peptide, focused library 1]", "values": [
      {"measurement": "CD sera the peptide reacted with (reactive/tested)", "setting": "[1]", "value": "18/18"}
    ]},
    {"sequence": "VVKGGSSSLGW [celiac peptide, synthetic peptide of Giovanna et al., PLOS Med. 2006]", "values": [
      {"measurement": "individual patients with CD whose serum IgA specifically recognized the peptide", "setting": "[2]", "value": 68, "unit": "%"}
    ]}
  ]
}
